Assay results reported in ChEMBL document CHEMBL3046079, “Synthesis, herbicidal activity, and mode of action of IR 5790” (J Agric Food Chem, 2001).
Active and inactive are the calls of the source.

How the values were obtained:
[1] = biological target: T1, Putative protoporphyrinogen IX oxidase (Cucumis sativus) (UniProt C6L817); assay: Inhibition of protoporphyrin oxidase in Cucumis sativus (cucumber) cotyledon disc assessed as increase in extraplastidic protoporphyrin 9 accumulation at 10 uM incubated in dim light for 2 hr by HPLC analysis relative to control
T1 sequence (whole entry): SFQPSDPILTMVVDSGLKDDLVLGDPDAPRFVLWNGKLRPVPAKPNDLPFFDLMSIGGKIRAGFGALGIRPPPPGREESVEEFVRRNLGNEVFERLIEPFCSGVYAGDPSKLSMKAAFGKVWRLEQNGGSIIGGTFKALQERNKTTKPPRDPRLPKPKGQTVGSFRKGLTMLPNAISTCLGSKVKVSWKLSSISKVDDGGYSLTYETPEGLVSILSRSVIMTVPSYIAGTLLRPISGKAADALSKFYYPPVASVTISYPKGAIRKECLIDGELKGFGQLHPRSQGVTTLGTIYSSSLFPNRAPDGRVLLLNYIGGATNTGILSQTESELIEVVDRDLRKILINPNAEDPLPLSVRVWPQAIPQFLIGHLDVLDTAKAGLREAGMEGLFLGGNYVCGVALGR

[2] = biological target: T1, Putative protoporphyrinogen IX oxidase (Cucumis sativus); assay: Inhibition of protoporphyrin oxidase in Cucumis sativus (cucumber) cotyledon disc assessed as light-dependent membrane damage at 10 uM incubated for 20 hr in dark followed by 8 hr in presence of light measured as electrolyte leakage relative to control
[3] = test system: Sorghum bicolor; assay: Post-emergence herbicidal activity against Sorghum bicolor assessed as injury at 150 g/ha applied at 15 days post-sowing measured after 15 days relative to control; format: functional
[4] = test system: Phalaris arundinacea; assay: Post-emergence herbicidal activity against Phalaris arundinacea assessed as injury at 150 g/ha applied at 15 days post-sowing measured after 15 days relative to control; format: functional
[5] = test system: Sida spinosa; assay: Pre-emergence herbicidal activity against Sida spinosa assessed as injury at 50 g/ha applied at 24 hr post-sowing measured after 28 days relative to control; format: functional
[6] = test system: Panicum dichotomiflorum; assay: Pre-emergence herbicidal activity against Panicum dichotomiflorum assessed as injury at 150 g/ha applied at 24 hr post-sowing measured after 28 days relative to control; format: functional
[7] = test system: Xanthium strumarium; assay: Pre-emergence herbicidal activity against Xanthium strumarium (cocklebur) assessed as injury at 50 g/ha applied at 24 hr post-sowing measured after 28 days relative to control; format: functional
[8] = test system: Veronica persica; assay: Pre-emergence herbicidal activity against Veronica persica assessed as injury at 50 g/ha applied at 24 hr post-sowing measured after 28 days relative to control; format: functional
[9] = test system: Calystegia sepium; assay: Post-emergence herbicidal activity against Calystegia sepium assessed as injury at 150 g/ha applied at 15 days post-sowing measured after 15 days relative to control; format: functional
[10] = test system: Amaranthus retroflexus; assay: Post-emergence herbicidal activity against Amaranthus retroflexus assessed as injury at 150 g/ha applied at 15 days post-sowing measured after 15 days relative to control; format: functional
[11] = test system: Stellaria media; assay: Post-emergence herbicidal activity against Stellaria media assessed as injury at 150 g/ha applied at 15 days post-sowing measured after 15 days relative to control; format: functional
[12] = test system: Amaranthus retroflexus; assay: Post-emergence herbicidal activity against Amaranthus retroflexus assessed as injury at 50 g/ha applied at 15 days post-sowing measured after 15 days relative to control; format: functional
[13] = test system: Ipomoea purpurea; assay: Post-emergence herbicidal activity against Ipomoea purpurea (common morning-glory) assessed as injury at 5 g/ha applied at 15 days post-sowing measured after 15 days relative to control; format: functional
[14] = test system: Calystegia sepium; assay: Post-emergence herbicidal activity against Calystegia sepium assessed as injury at 5 g/ha applied at 15 days post-sowing measured after 15 days relative to control; format: functional
[15] = test system: Panicum dichotomiflorum; assay: Post-emergence herbicidal activity against Panicum dichotomiflorum assessed as injury at 15 g/ha applied at 15 days post-sowing measured after 15 days relative to control; format: functional
[16] = test system: Echinochloa crus-galli; assay: Post-emergence herbicidal activity against Echinochloa crus-galli (barnyard grass) assessed as injury at 15 g/ha applied at 15 days post-sowing measured after 15 days relative to control; format: functional
[17] = test system: Solanum nigrum; assay: Post-emergence herbicidal activity against Solanum nigrum (black nightshade) assessed as injury at 15 g/ha applied at 15 days post-sowing measured after 15 days relative to control; format: functional
[18] = test system: Calystegia sepium; assay: Post-emergence herbicidal activity against Calystegia sepium assessed as injury at 15 g/ha applied at 15 days post-sowing measured after 15 days relative to control; format: functional
[19] = test system: Chenopodium album; assay: Post-emergence herbicidal activity against Chenopodium album assessed as injury at 15 g/ha applied at 15 days post-sowing measured after 15 days relative to control; format: functional
[20] = test system: Ipomoea purpurea; assay: Pre-emergence herbicidal activity against Ipomoea purpurea (common morning-glory) assessed as injury at 150 g/ha applied at 24 hr post-sowing measured after 28 days relative to control; format: functional
[21] = test system: Capsella bursa-pastoris; assay: Pre-emergence herbicidal activity against Capsella bursa-pastoris assessed as injury at 150 g/ha applied at 24 hr post-sowing measured after 28 days relative to control; format: functional
[22] = test system: Abutilon theophrasti; assay: Post-emergence herbicidal activity against Abutilon theophrasti (velvetleaf) assessed as injury at 15 g/ha applied at 15 days post-sowing measured after 15 days relative to control; format: functional
[23] = test system: Beta vulgaris; assay: Phytotoxicity against Beta vulgaris assessed as injury at 50 g/ha applied as post-emergent treatment at 15 days post-sowing measured after 15 days relative to control; format: organism-based; settings: in vivo, other, 360 h
[24] = test system: Glycine max; assay: Phytotoxicity against Glycine max (soybean) assessed as injury at 50 g/ha applied as post-emergent treatment at 15 days post-sowing measured after 15 days relative to control; format: organism-based; settings: in vivo, other, 360 h
[25] = test system: Amaranthus retroflexus; assay: Pre-emergence herbicidal activity against Amaranthus retroflexus assessed as injury at 150 g/ha applied at 24 hr post-sowing measured after 28 days relative to control; format: functional
[26] = test system: Abutilon theophrasti; assay: Pre-emergence herbicidal activity against Abutilon theophrasti (velvetleaf) assessed as injury at 150 g/ha applied at 24 hr post-sowing measured after 28 days relative to control; format: functional
[27] = test system: Setaria viridis; assay: Post-emergence herbicidal activity against Setaria viridis (green foxtail) assessed as injury at 50 g/ha applied at 15 days post-sowing measured after 15 days relative to control; format: functional
[28] = test system: Avena fatua; assay: Post-emergence herbicidal activity against Avena fatua assessed as injury at 50 g/ha applied at 15 days post-sowing measured after 15 days relative to control; format: functional
[29] = test system: Papaver rhoeas; assay: Post-emergence herbicidal activity against Papaver rhoeas assessed as injury at 50 g/ha applied at 15 days post-sowing measured after 15 days relative to control; format: functional
[30] = test system: Matricaria chamomilla; assay: Post-emergence herbicidal activity against Matricaria chamomilla assessed as injury at 50 g/ha applied at 15 days post-sowing measured after 15 days relative to control; format: functional
[31] = test system: Geranium dissectum; assay: Post-emergence herbicidal activity against Geranium dissectum assessed as injury at 50 g/ha applied at 15 days post-sowing measured after 15 days relative to control; format: functional
[32] = test system: Galium aparine; assay: Post-emergence herbicidal activity against Galium aparine assessed as injury at 50 g/ha applied at 15 days post-sowing measured after 15 days relative to control; format: functional
[33] = test system: Chenopodium album; assay: Post-emergence herbicidal activity against Chenopodium album assessed as injury at 50 g/ha applied at 15 days post-sowing measured after 15 days relative to control; format: functional

C#CCOc1cc(-n2nc(C(C)(C)C)sc2=O)c(Cl)cc1Cl
50%: Activity [12] | Activity [13] | Activity [18] | Activity [23] | Activity [31]
234: fold change (FC) [1]
70%: Activity [19]
active: inhibition [2]
30%: Activity [4] | Activity [8] | Activity [22] | Activity [32]
10%: Activity [3] | Activity [14] | Activity [17] | Activity [24] | Activity [27]
90%: Activity [6] | Activity [9] | Activity [10] | Activity [21] | Activity [25] | Activity [33]
0%: Activity [5] | Activity [7] | Activity [11] | Activity [15] | Activity [16] | Activity [20] | Activity [26] | Activity [28] | Activity [29] | Activity [30]
